# Results published in patent US20220211732A1, “PREBIOTIC COMPOSITIONS” (Evonik Operations GmbH, priority 2019, published 2022).
# What was measured:
# [1] = tested on: human intestinal microbiota; assay: SCFA production after omega-3 amino acid salts and controls (Example 2); format: cell-based; conditions: salts 1.4 mg/ml, FFA 0.96, Lys 0.49, Arg 0.52, Orn 0.5 mg/ml; for Acetate, change compared to control / Propionate, change compared to control / n-Butyrate, change compared to control: triplicates
# Procedure: (§1) To determine the effect of a EPA/DHA lysine salt (EPA/DHA-Lys) on adult colonic microbiota, an intestinal screening model was used (I-screen, TNO, the Netherlands). Therefore, the I-screen model was inoculated with standard human adult fecal microbiota material, which consisted of pooled fecal donations from six healthy adult volunteers (Caucasian, European lifestyle and nutrition). The fecal material was mixed and grown in a fed-batch fermenter for 40 hours to create a standardized microbiota as described previously.
# (§2) The intestinal microbiota was cultured in vitro in modified standard ileal efflux medium (SIEM), the composition of which was described by Minekus et al.. All components were supplied by Trititium Microbiology (Veldhoven, The Netherlands). The pH of the medium was adjusted to 5.8.
# (§3) For the I-screen fermentations, the pre-cultured standardized fecal inoculum was diluted 50 times in modified SIEM. EPA/DHA-Lys was introduced into the I-screen to final concentrations of 1.4 mg/ml and 1.5 mg/ml, respectively; omega-3 ethyl ester and fish oil at 1.4 mg/ml each. Inulin was added as a control at a final concentration of 4 mg/ml. […] All experiments were carried out in triplicates.
# (§4) For the analysis of short-chain fatty acids in exposed material from the I-screen, samples were centrifuged (˜4000 g, 5 min), clear supernatant was filter sterilized (0.45 μm) and a mixture of formic acid (20%), methanol and 2-ethyl butyric acid (internal standard, 2 mg/ml in methanol) was added.
# The effects of different omega-3 amino acid salts omega-3-lysine (omega-3-lys), omega-3-arginine (omega-3-arg) and omega-3-ornithine (omega-3-orn) and their respective controls (free fatty acids (FFA), amino acids lysine (lys), arginine (arg) and ornithine (orn)) on SCFA production by an intestinal microbiota were analyzed.
# human fecal microbiota = assay: I-screen intestinal screening model, SCFA production (Example 1); format: cell-based; conditions: 24 h incubation, mean of triplicates
# Procedure: as §1, with “previously. These standard adult gut microbiota sets were stored at −80° C. in 12% glycerol.” for “previously.”
# as §2, §3, §4
# [2] = in vivo; cited from earlier work
# human fecal microbiota 1 = assay: TIM-2 in vitro colon model, SCFA production, microbiota 1 (Example 3); format: cell-based; conditions: for Cumulative production of acetate / Cumulative production of butyrate / Cumulative production of propionate: lumen and dialysate, duplicates
# Text: To confirm the results for omega-3 amino acid salts, using omega-3 lysine as an example, an additional, independent and more advanced model of fermentation by the human colonic microbiota was applied, the TIM-2 model. Next to omega-3 lysine the prebiotic carbohydrate L-rhamnose was also applied. TIM-2 is an abbreviation of TNO's in vitro model-2, an advanced dynamic, computer-controlled in vitro model of the adult human colon. TIM-2 simulates to a high degree the successive dynamic processes in the colon and is predictive for what happens in human individuals. The following in vivo conditions are simulated in this model: body temperature, pH in the lumen, composition and rate of secretion, delivery of a pre-digested substrate from the ‘ileum’ (SIEM), mixing and transport of the intestinal contents, absorption of water and microbial metabolites and presence of a complex, high density, metabolically active, anaerobic fecal microbiota of human origin. The model was set-up and inoculated with the microbiota on the first day. Following an overnight adaptation period in SIEM, the test-products were fed at final concentrations of 1.4 mg/ml EPA/DHA-Lys or 1 mg/ml L-rhamnose in SIEM during an intervention period of 72 hrs. Cultivation in SIEM without any additional substance served as control condition. Samples were taken from the lumen and the dialysate every 24 hrs (t0, t24, t48 and t72) to study the metabolic activity of the gut microbiota (SCFA production) and changes in composition of the gut microbiota (16S rRNA gene analysis). Samples were analyzed for SCFA by ion-chromatography. […] The order of Pr/Ac for the 72 h treatments is control (SIEM)<L-rhamnose<EPA/DHA-Lys (ω-3)<L-rhamnose+EPA/DHA-Lys (ω-3).
# [3] = cited from earlier work
# human fecal microbiota 2 = assay: TIM-2 in vitro colon model, SCFA production, microbiota 2 (Example 6); format: cell-based; conditions: for Cumulative production of acetate / Cumulative production of butyrate / Cumulative production of propionate: lumen and dialysate, duplicates
# Text: TIM-2 is an abbreviation of TNO's in vitro model-2, an advanced dynamic, computer-controlled in vitro model of the adult human colon. TIM-2 simulates to a high degree the successive dynamic processes in the colon and is predictive for what happens in human individuals. The following in vivo conditions are simulated in this model: body temperature, pH in the lumen, composition and rate of secretion, delivery of a pre-digested substrate from the ‘ileum’ (SIEM), mixing and transport of the intestinal contents, absorption of water and microbial metabolites and presence of a complex, high density, metabolically active, anaerobic fecal microbiota of human origin.
# The model was set-up and inoculated with the microbiota on the first day. Following an overnight adaptation period in SIEM, the test-products were fed at final concentrations of 1.4 mg/ml EPA/DHA-Lys or 1 mg/ml L-rhamnose in SIEM during an intervention period of 72 hrs. Cultivation in SIEM without any additional substance served as control condition.
# Samples were taken from the lumen and the dialysate every 24 hrs (t0, t24, t48 and t72) to study the metabolic activity of the gut microbiota (SCFA production) and changes in composition of the gut microbiota (16S rRNA gene analysis).
# Samples were analyzed for SCFA by ion-chromatography.
# A second TIM-2 study was performed, using conditions as described under Example 3 but applying a different human fecal microbiota (termed microbiota 2), to assess whether the observed effects are dependent on the initial microbiota composition.
# T1=EPA/DHA-Lys (ω-3); T2=L-rhamnose.
compound,measurement,setting,value
"N=C(N)NCCC[C@H](N)C(=O)O [Arg, L-arginine]",Propionate/acetate ratio,[1],0.40
same,"Acetate, change compared to control",[1],+8.29 mM
same,"Propionate, change compared to control",[1],+2.02 mM
same,"n-Butyrate, change compared to control",[1],+0.71 mM
"NCCC[C@H](N)C(=O)O [Orn, L-ornithine]",Propionate/acetate ratio,[1],0.36
same,"Acetate, change compared to control",[1],+10.15 mM
same,"Propionate, change compared to control",[1],+1.74 mM
same,"n-Butyrate, change compared to control",[1],+0.19 mM
Inulin,"n-Butyrate, change compared to control",human fecal microbiota,+0.46 mM
same,"Propionate, change compared to control",human fecal microbiota; controls ~8 mM propionate,+0.03 mM
same,"Acetate, change compared to control",human fecal microbiota; controls ~40 mM acetate,+5.87 mM
CC(=O)O [acetate],Systemic availability of colonic SCFA,[2],~36%
"C[C@H](O)[C@H](O)[C@@H](O)[C@@H](O)C=O [rhamnose, L-rhamnose]",Cumulative production of acetate,human fecal microbiota 1; 0 h,0.00 mmol
same,Cumulative production of butyrate,human fecal microbiota 1; 0 h,0.00 mmol
same,Cumulative production of propionate,human fecal microbiota 1; 0 h,0.00 mmol
same,Pr/Ac (propionate-to-acetate ratio),human fecal microbiota 1; 24 h,0.57
same,Cumulative production of acetate,human fecal microbiota 1; 24 h,25.30 mmol
same,Cumulative production of butyrate,human fecal microbiota 1; 24 h,15.69 mmol
same,Cumulative production of propionate,human fecal microbiota 1; 24 h,14.30 mmol
same,Pr/Ac (propionate-to-acetate ratio),human fecal microbiota 1; 48 h,0.56
same,Cumulative production of acetate,human fecal microbiota 1; 48 h,56.28 mmol
same,Cumulative production of butyrate,human fecal microbiota 1; 48 h,35.02 mmol
same,Cumulative production of propionate,human fecal microbiota 1; 48 h,31.64 mmol
same,Pr/Ac (propionate-to-acetate ratio),human fecal microbiota 1; 72 h,0.56
same,Cumulative production of acetate,human fecal microbiota 1; 72 h,81.62 mmol
same,Cumulative production of butyrate,human fecal microbiota 1; 72 h,52.10 mmol
same,Cumulative production of propionate,human fecal microbiota 1; 72 h,45.41 mmol
same,Ratio of SCFA: acetate as percentage of acetate + propionate + butyrate,"human fecal microbiota 1; microbiota 1, average",51.1%
same,Ratio of SCFA: butyrate as percentage of acetate + propionate + butyrate,"human fecal microbiota 1; microbiota 1, average",28.1%
same,Ratio of SCFA: propionate as percentage of acetate + propionate + butyrate,"human fecal microbiota 1; microbiota 1, average",20.8%
same,Circulating propionate after L-rhamnose,[3]; acute intake of 25 g L-rhamnose,significant increase
same,Serum propionate after L-rhamnose,[3]; up to 25.5 g L-rhamnose/day for seven days,no increase
same,Cumulative production of acetate,human fecal microbiota 2; 0 h,0.00 mmol
same,Cumulative production of butyrate,human fecal microbiota 2; 0 h,0.00 mmol
same,Cumulative production of propionate,human fecal microbiota 2; 0 h,0.00 mmol
same,Pr/Ac (propionate-to-acetate ratio),human fecal microbiota 2; 24 h,0.57
same,Cumulative production of acetate,human fecal microbiota 2; 24 h,25.30 mmol
same,Cumulative production of butyrate,human fecal microbiota 2; 24 h,15.69 mmol
same,Cumulative production of propionate,human fecal microbiota 2; 24 h,14.30 mmol
same,Pr/Ac (propionate-to-acetate ratio),human fecal microbiota 2; 48 h,0.56
same,Cumulative production of acetate,human fecal microbiota 2; 48 h,56.28 mmol
same,Cumulative production of butyrate,human fecal microbiota 2; 48 h,35.02 mmol
same,Cumulative production of propionate,human fecal microbiota 2; 48 h,31.64 mmol
same,Pr/Ac (propionate-to-acetate ratio),human fecal microbiota 2; 72 h,0.56
same,Cumulative production of acetate,human fecal microbiota 2; 72 h,81.62 mmol
same,Cumulative production of butyrate,human fecal microbiota 2; 72 h,52.10 mmol
same,Cumulative production of propionate,human fecal microbiota 2; 72 h,45.41 mmol
same,Ratio of SCFA: acetate as percentage of acetate + propionate + butyrate,"human fecal microbiota 2; microbiota 2, average",45.7%
same,Ratio of SCFA: butyrate as percentage of acetate + propionate + butyrate,"human fecal microbiota 2; microbiota 2, average",29.0%
same,Ratio of SCFA: propionate as percentage of acetate + propionate + butyrate,"human fecal microbiota 2; microbiota 2, average",25.3%
"NCCCC[C@H](N)C(=O)O [Lys, L-lysine]",Propionate/acetate ratio,[1],0.40
same,"Acetate, change compared to control",[1],+8.81 mM
same,"Propionate, change compared to control",[1],+2.12 mM
same,"n-Butyrate, change compared to control",[1],+0.29 mM
CCCC(=O)O [butyrate],Systemic availability of colonic SCFA,[2],~2%
